These results are taken from patent publication US8623839B2, “Compositions and methods for stabilized polysaccharide formulations” (DePuy Mitek, LLC, priority 2011, dated 2014).

Assay [1] has as its system rabbit anterior cruciate ligament transection (ACLT) model of OA. In words: Rabbit ACLT model of osteoarthritis, modified Mankin scale. The class given is in vivo. The settings on record: 5% solution in 3 mM glycine-HCl buffer pH approx. 3, intra-articular weekly for seven weeks, euthanasia at 8 weeks; vs untreated animals (FIG. 9). As to the method:
The trehalose formulation (a 5% trehalose solution in 3 mM glycine-HCl buffer having a pH of approximately 3) described above was also tested in the rabbit anterior cruciate ligament transection (ACLT) model of OA. The ACLT surgery destabilized the rabbit knee to a greater extent than meniscal transection, resulting in not only substantial cartilage deterioration but also osteophyte formation. Studies investigating the development and regulation of osteophyte formation in the rabbit model of OA have detected plate-like formations as early as 4 weeks post-ACLT, and osteophyte growth in all compartments of the knee by 12 weeks post-ACLT.
Rabbits were anesthetized. The patellar fat pad was retracted, and the ACL was isolated. The anterior cruciate ligament was severed with a surgical blade. The fibrous capsule and subcutaneous tissue were closed prior to the skin being sutured. Beginning one week after surgery, intra-articular injections were given weekly for seven weeks, followed by euthanasia at 8 weeks. Cartilage degradation was determined histologically using a modified Mankin scale. Higher scores indicated more extensive cartilage degradation, with a maximum score of 18.
[…] decreased cartilage degeneration as a result of the intra-articular trehalose injections.

Assay [2] relates to rat medial meniscal tear (MMT) model of osteoarthritis. In words: Rat MMT model of osteoarthritis, histology. The class given is in vivo. The text has this: In the rat medial mensical tear (MMT) model of osteoarthritis, transection of the medial meniscus results in joint deterioration and reduced weight bearing that mimics human osteoarthritis. A unilateral medial meniscal tear in 300-400 gram rats results in rapidly progressive cartilage degenerative changes characterized by chondrocyte and proteoglycan loss, fibrillation, osteophyte formation and chondrocyte cloning. Such changes are typically observed to be substantial by day 21 following the meniscal surgery. The extent of joint deterioration, as determined primarily by the extent of cartilage lesions formed, can be measured using a semi-quantitative histological scoring system.
To test the utility of trehalose as a vehicle for intra-articularly injected compounds, a solution of trehalose was formulated as a 5% solution in 3 mM glycine-HCl buffer, having a pH of approximately 3. The solution was tested in the rat MMT model. Transection of the medial collateral ligament just below attachment to the meniscus was performed on 15 male Lewis rats. The meniscus was cut at its narrowest point (away from the ossicles) taking care not to damage the tibial surface.
Beginning three days after MMT surgery, intra-articular injections of the trehalose solution were given weekly for five weeks, followed by euthanasia at week six.
Such measurements are taken using an ocular micrometer from stained histological cross sections of the medial compartment of the joint.
These measurements are taken using an ocular micrometer from stained histological cross sections of the medial compartment of the joint.
Cartilage preservation also correlated to the extent of collagen degeneration. […] The extent of collagen degeneration is defined as follows: […]
Severe damage (total or near total loss of collagen to tidemark, >90% thickness)
Marked damage (extends through 61-90% of the cartilage thickness)
Moderate damage (extends thru 31-60% of the cartilage thickness)
Mild damage (extends through 11-30% of the cartilage thickness)
Minimal damage (very superficial, affecting upper 10% only)
Cartilage degeneration scores were determined histologically by estimating the area of non-viable (significant chondrocyte and proteoglycan loss but collagen retention) and completely absent cartilage matrix, then estimating the percentage of that area compared to the area of the extrapolated original cartilage cross sectional area. A score of 1-5 is assigned, with a score of 1 indicating cartilage degeneration of 10% or less, and a score of 5 indicating complete cartilage degeneration. In FIG. 8, Zone 1 refers to the one third of the medial tibial plateau closest to the transected meniscus. […]

With `OC[C@H]1O[C@H](O[C@H]2O[C@H](CO)[C@@H](O)[C@H](O)[C@H]2O)[C@H](O)[C@@H](O)[C@@H]1O` [trehalose, α-D-glucopyranosyl α-D-glucopyranoside], in assay [1], the “modified Mankin score” value is “significant improvement”. Further, the “width of significant cartilage lesions (chondrocyte and proteoglycan loss through 50% or more of cartilage thickness)” value in assay [2] (5% solution in 3 mM glycine-HCl buffer pH approx. 3, intra-articular weekly for five weeks, euthanasia at week six, vs no treatment (FIG. 5)) is reported as “significant reduction”. The “lesion Depth Ratio” value in assay [2] (5% solution, intra-articular weekly for five weeks, vs no treatment (FIG. 6)) was “significant improvement”. The “width of cartilage lesions with marked or severe collagen depletion” value in assay [2] (5% solution, intra-articular weekly for five weeks, vs no treatment (FIG. 7)) is recorded as “significantly reduced”. In assay [2] (all three zones, 5% solution, intra-articular weekly for five weeks (FIG. 8)), the “cartilage degeneration score of medial tibial plateau” value was “statistically improved”.
